{"source": "patent US20160206688A1", "about": "“METHODS FOR TREATING BACTEREMIA AND OSTEOMYELITIS USING ORITAVANCIN” (THE MEDICINES COMPANY, priority 2013, published 2016)", "test_system": "E. faecium", "test": "Broth microdilution MIC, European bacteraemia isolates 2010-2012", "assay_type": "cell-based, Enterococcus faecium", "summary_of_the_method": "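Bacteraemia isolates from European, Israeli, Russian, Turkish and Ukrainian hospitals (2010-2012) tested centrally by CLSI M07-A9 broth microdilution in cation-adjusted Mueller-Hinton broth with 0.002% polysorbate-80. QC strains E. faecalis ATCC 29212 and S. aureus ATCC 29213; interpretation per CLSI M100-S23 and EUCAST 2013.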", "key": {"[1]": {"details": "E. faecium (315), at ≦0.008 mg/L"}, "[2]": {"details": "E. faecium, VanA-phenotype (53), at ≦0.008 mg/L"}, "[3]": {"details": "E. faecium, Vancomycin-susceptible (257), at ≦0.008 mg/L"}, "[4]": {"details": "Enterococcus faecium, Table 1, E. faecium (315)"}, "[5]": {"details": "Enterococcus faecium, Table 1, E. faecium, VanA-phenotype (53)"}, "[6]": {"details": "Enterococcus faecium, Table 1, E. faecium, Vancomycin-susceptible (257)"}, "[7]": {"details": "Enterococcus faecium, Table 2, E. faecium Vancomycin-resistant (VanA-phenotype) (153)"}, "[8]": {"details": "Enterococcus faecium, Table 2, E. faecium Vancomycin-susceptible (257)"}}, "note": "Where two headings read alike, the source gives them in different places."}
{"compound": "CN[C@H](CC(C)C)C(=O)N[C@H]1C(=O)N[C@@H](CC(N)=O)C(=O)N[C@H]2C(=O)N[C@H]3C(=O)N[C@H](C(=O)N[C@H](C(=O)O)c4cc(O)cc(O)c4-c4cc3ccc4O)[C@H](O[C@H]3C[C@](C)(N)[C@@H](O)[C@H](C)O3)c3ccc(c(Cl)c3)Oc3cc2cc(c3O[C@@H]2O[C@H](CO)[C@@H](O)[C@H](O)[C@H]2O[C@H]2C[C@](C)(NCc3ccc(-c4ccc(Cl)cc4)cc3)[C@@H](O)[C@H](C)O2)Oc2ccc(cc2Cl)[C@H]1O", "note": "[Oritavancin, N-(4-(4-chlorophenyl)benzyl)A82846B]", "values": [{"measurement": "Number inhibited at MIC", "setting": "E. faecium (315), at 0.015 mg/L", "result": 25}, {"measurement": "Number inhibited at MIC", "setting": "E. faecium (315), at 0.03 mg/L", "result": 12}, {"measurement": "Number inhibited at MIC", "setting": "E. faecium (315), at 0.06 mg/L", "result": 6}, {"measurement": "Number inhibited at MIC", "setting": "E. faecium (315), at 0.12 mg/L", "result": 3}, {"measurement": "Number inhibited at MIC", "setting": "[1]", "result": 269}, {"measurement": "cumulative % inhibited at MIC", "setting": "[1]", "result": 85.4, "unit": "%"}, {"measurement": "Number inhibited at MIC", "setting": "E. faecium, VanA-phenotype (53), at 0.015 mg/L", "result": 19}, {"measurement": "Number inhibited at MIC", "setting": "E. faecium, VanA-phenotype (53), at 0.03 mg/L", "result": 12}, {"measurement": "Number inhibited at MIC", "setting": "E. faecium, VanA-phenotype (53), at 0.06 mg/L", "result": 6}, {"measurement": "Number inhibited at MIC", "setting": "E. faecium, VanA-phenotype (53), at 0.12 mg/L", "result": 3}, {"measurement": "Number inhibited at MIC", "setting": "[2]", "result": 13}, {"measurement": "cumulative % inhibited at MIC", "setting": "[2]", "result": 24.5, "unit": "%"}, {"measurement": "Number inhibited at MIC", "setting": "E. faecium, Vancomycin-susceptible (257), at 0.015 mg/L", "result": 6}, {"measurement": "Number inhibited at MIC", "setting": "[3]", "result": 251}, {"measurement": "cumulative % inhibited at MIC", "setting": "[3]", "result": 97.7, "unit": "%"}, {"measurement": "MIC50", "setting": "[4]", "result": "≤ 0.008", "unit": "µg/mL"}, {"measurement": "MIC90", "setting": "[4]", "result": 0.015, "unit": "µg/mL"}, {"measurement": "MIC50", "setting": "[5]", "result": 0.015, "unit": "µg/mL"}, {"measurement": "MIC90", "setting": "[5]", "result": 0.06, "unit": "µg/mL"}, {"measurement": "MIC50", "setting": "[6]", "result": "≤ 0.008", "unit": "µg/mL"}, {"measurement": "MIC90", "setting": "[6]", "result": "≤ 0.008", "unit": "µg/mL"}, {"measurement": "MIC50", "setting": "[7]", "result": 0.015, "unit": "µg/mL"}, {"measurement": "MIC90", "setting": "[7]", "result": 0.06, "unit": "µg/mL"}, {"measurement": "MIC50", "setting": "[8]", "result": "≤ 0.0081", "unit": "µg/mL"}, {"measurement": "MIC90", "setting": "[8]", "result": "≤ 0.008", "unit": "µg/mL"}, {"measurement": "MIC", "setting": "Enterococcus faecium, read-out: MIC values", "result": "≤ 0.008", "unit": "µg/mL"}, {"measurement": "inhibition at 0.015 µg/mL", "setting": "Enterococcus faecium, read-out: cumulative % inhibited at MIC, E. faecium (315), at 0.015 mg/L", "result": 93.3, "unit": "%"}, {"measurement": "inhibition at 0.03 µg/mL", "setting": "Enterococcus faecium, read-out: cumulative % inhibited at MIC, E. faecium (315), at 0.03 mg/L", "result": 97.1, "unit": "%"}, {"measurement": "inhibition at 0.06 µg/mL", "setting": "Enterococcus faecium, read-out: cumulative % inhibited at MIC, E. faecium (315), at 0.06 mg/L", "result": 99.1, "unit": "%"}, {"measurement": "inhibition at 0.12 µg/mL", "setting": "Enterococcus faecium, read-out: cumulative % inhibited at MIC, E. faecium (315), at 0.12 mg/L", "result": 100, "unit": "%"}, {"measurement": "inhibition at 0.015 µg/mL", "setting": "Enterococcus faecium, read-out: cumulative % inhibited at MIC, E. faecium, VanA-phenotype (53), at 0.015 mg/L", "result": 60.4, "unit": "%"}, {"measurement": "inhibition at 0.03 µg/mL", "setting": "Enterococcus faecium, read-out: cumulative % inhibited at MIC, E. faecium, VanA-phenotype (53), at 0.03 mg/L", "result": 83, "unit": "%"}, {"measurement": "inhibition at 0.06 µg/mL", "setting": "Enterococcus faecium, read-out: cumulative % inhibited at MIC, E. faecium, VanA-phenotype (53), at 0.06 mg/L", "result": 94.3, "unit": "%"}, {"measurement": "inhibition at 0.12 µg/mL", "setting": "Enterococcus faecium, read-out: cumulative % inhibited at MIC, E. faecium, VanA-phenotype (53), at 0.12 mg/L", "result": 100, "unit": "%"}, {"measurement": "inhibition at 0.015 µg/mL", "setting": "Enterococcus faecium, read-out: cumulative % inhibited at MIC, E. faecium, Vancomycin-susceptible (257), at 0.015 mg/L", "result": 100, "unit": "%"}, {"measurement": "MIC Range", "setting": "Table 2, E. faecium Vancomycin-resistant (VanA-phenotype) (153)", "result": "≦0.008-0.12 mg/L"}, {"measurement": "MIC Range", "setting": "Table 2, E. faecium Vancomycin-susceptible (257)", "result": "≦0.008-0.015 mg/L"}, {"measurement": "MIC50 and MIC90 lower than daptomycin and linezolid", "setting": "VanA-phenotype E. faecium", "result": "32- to 64 fold"}, {"measurement": "concentration inhibiting all strains", "setting": "VanA-phenotype E. faecium strains", "result": "≤ 0.12", "unit": "mg/L"}, {"measurement": "concentration inhibiting all strains", "setting": "all E. faecium, including resistant subsets", "result": "≤ 0.12", "unit": "mg/L"}, {"measurement": "activity relative to wild-type vancomycin-susceptible population", "setting": "vancomycin-resistant (VanA-type) E. faecium strains", "result": "at least two-fold less active"}]}
